Experiments:
Experiment in all cases: KINOMEscan competition binding
[1] = molecular target: RIPK2 (human) (UniProt O43353)
[2] = molecular target: LIMK1 (human) (UniProt P53667)
[3] = molecular target: CDK2 (human) (UniProt P24941)
[4] = molecular target: KDR (human) (UniProt P35968)
[5] = molecular target: MAPK10 (human) (UniProt P53779)
[6] = molecular target: AURKC (human) (UniProt Q9UQB9)
[7] = molecular target: NTRK1 (human) (UniProt P04629)
[8] = molecular target: EPHA7 (human) (UniProt Q15375)
[9] = molecular target: PDGFRB (human) (UniProt P09619)
[10] = molecular target: CAMK1 (human) (UniProt Q14012)
[11] = molecular target: RPS6KA3 KD1 (human) (UniProt P51812)
[12] = molecular target: JAK1 JH1 catalytic (human) (UniProt P23458)
[13] = molecular target: AURKA (human) (UniProt O14965)
[14] = molecular target: NEK9 (human) (UniProt Q8TD19)
[15] = molecular target: MAPK14 (human) (UniProt Q16539)
[16] = molecular target: PIM2 (human) (UniProt Q9P1W9)
[17] = molecular target: CAMK2G (human) (UniProt Q13555)
[18] = molecular target: CAMKK1 (human) (UniProt Q8N5S9)
[19] = molecular target: DAPK2 (human) (UniProt Q9UIK4)
[20] = molecular target: KIT (human) (UniProt P10721)
[21] = molecular target: FGFR1 (human) (UniProt P11362)
[22] = molecular target: MAPK11 (human) (UniProt Q15759)
[23] = molecular target: CAMK2D (human) (UniProt Q13557)
[24] = molecular target: PLK4 (human) (UniProt O00444)
[25] = molecular target: FLT3 (human) (UniProt P36888)
[26] = molecular target: MAPK8 (human) (UniProt P45983)
[27] = molecular target: EPHA4 (human) (UniProt P54764)
[28] = molecular target: PAK6 (human) (UniProt Q9NQU5)
[29] = molecular target: PTK6 (human) (UniProt Q13882)
[30] = molecular target: MAPK9 (human) (UniProt P45984)
[31] = molecular target: CDK5 (human) (UniProt Q00535)
[32] = molecular target: STK16 (human) (UniProt O75716)
[33] = molecular target: PRKACA (human) (UniProt P17612)
[34] = molecular target: MAP3K5 (human) (UniProt Q99683)
[35] = molecular target: EPHA2 (human) (UniProt P29317)
[36] = molecular target: CAMK2B (human) (UniProt Q13554)
[37] = molecular target: INSR (human) (UniProt P06213)
[38] = molecular target: MKNK2 (human) (UniProt Q9HBH9)
[39] = molecular target: NEK6 (human) (UniProt Q9HC98)
[40] = molecular target: FGFR2 (human) (UniProt P21802)
[41] = molecular target: FGR (human) (UniProt P09769)
[42] = molecular target: FGFR3 (human) (UniProt P22607)
[43] = molecular target: RPS6KA5 KD1 (human) (UniProt O75582)
[44] = molecular target: PAK4 (human) (UniProt O96013)
[45] = molecular target: MAPK12 (human) (UniProt P53778)
[46] = molecular target: PIM1 (human) (UniProt P11309)
[47] = molecular target: CAMK2A (human) (UniProt Q9UQM7)
[48] = molecular target: FLT4 (human) (UniProt P35916)
[49] = molecular target: PAK7 (human) (UniProt Q9P286)
[50] = molecular target: CSNK1G1 (human) (UniProt Q9HCP0)
[51] = molecular target: PRKAA1 (human) (UniProt Q13131)
[52] = molecular target: TTK (human) (UniProt P33981)

Measured: Kd

Sequence of TTK (human) (P33981 whole entry, looked up): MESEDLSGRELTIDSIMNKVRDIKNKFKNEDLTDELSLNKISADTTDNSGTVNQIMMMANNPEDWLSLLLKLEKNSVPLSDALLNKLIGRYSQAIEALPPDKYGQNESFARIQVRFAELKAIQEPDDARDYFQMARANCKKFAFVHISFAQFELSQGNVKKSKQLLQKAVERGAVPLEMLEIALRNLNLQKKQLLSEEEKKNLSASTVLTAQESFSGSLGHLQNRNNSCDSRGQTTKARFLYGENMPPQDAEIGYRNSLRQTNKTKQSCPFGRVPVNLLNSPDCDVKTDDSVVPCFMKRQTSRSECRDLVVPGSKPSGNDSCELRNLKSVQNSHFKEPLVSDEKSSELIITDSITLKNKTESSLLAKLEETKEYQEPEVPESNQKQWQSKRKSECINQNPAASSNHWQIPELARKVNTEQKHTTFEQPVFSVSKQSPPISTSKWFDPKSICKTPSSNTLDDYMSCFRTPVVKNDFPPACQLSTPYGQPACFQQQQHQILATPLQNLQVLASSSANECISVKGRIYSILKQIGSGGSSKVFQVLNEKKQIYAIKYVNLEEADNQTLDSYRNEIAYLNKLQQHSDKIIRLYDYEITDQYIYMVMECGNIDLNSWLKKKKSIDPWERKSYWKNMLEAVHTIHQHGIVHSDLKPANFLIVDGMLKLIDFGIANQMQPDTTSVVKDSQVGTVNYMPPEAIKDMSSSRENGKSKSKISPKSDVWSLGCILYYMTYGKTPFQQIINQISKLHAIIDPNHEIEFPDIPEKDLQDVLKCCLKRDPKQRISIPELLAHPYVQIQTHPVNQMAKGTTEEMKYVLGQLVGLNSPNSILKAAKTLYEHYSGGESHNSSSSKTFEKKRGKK
Sequence of DAPK2 (human) (Q9UIK4 whole entry, looked up): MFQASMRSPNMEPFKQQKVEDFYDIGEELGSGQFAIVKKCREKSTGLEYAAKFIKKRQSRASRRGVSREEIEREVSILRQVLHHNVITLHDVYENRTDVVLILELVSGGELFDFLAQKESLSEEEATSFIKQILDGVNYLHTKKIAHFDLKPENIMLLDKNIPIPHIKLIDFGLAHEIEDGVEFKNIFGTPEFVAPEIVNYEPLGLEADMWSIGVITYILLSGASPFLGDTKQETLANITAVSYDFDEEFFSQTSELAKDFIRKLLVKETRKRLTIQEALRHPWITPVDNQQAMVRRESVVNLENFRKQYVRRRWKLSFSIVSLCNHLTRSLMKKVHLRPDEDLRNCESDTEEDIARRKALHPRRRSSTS
Sequence of STK16 (human) (O75716 whole entry, looked up): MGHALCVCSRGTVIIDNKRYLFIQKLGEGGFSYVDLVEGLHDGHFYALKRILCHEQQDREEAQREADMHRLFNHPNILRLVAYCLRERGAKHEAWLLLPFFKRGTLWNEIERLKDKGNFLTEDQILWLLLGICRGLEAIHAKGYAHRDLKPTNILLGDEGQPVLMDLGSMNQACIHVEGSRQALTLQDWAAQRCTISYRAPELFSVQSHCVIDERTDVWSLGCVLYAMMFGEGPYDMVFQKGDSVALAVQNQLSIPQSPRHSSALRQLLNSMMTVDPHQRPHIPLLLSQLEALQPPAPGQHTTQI
Sequence of FLT4 (human) (P35916 whole entry, looked up): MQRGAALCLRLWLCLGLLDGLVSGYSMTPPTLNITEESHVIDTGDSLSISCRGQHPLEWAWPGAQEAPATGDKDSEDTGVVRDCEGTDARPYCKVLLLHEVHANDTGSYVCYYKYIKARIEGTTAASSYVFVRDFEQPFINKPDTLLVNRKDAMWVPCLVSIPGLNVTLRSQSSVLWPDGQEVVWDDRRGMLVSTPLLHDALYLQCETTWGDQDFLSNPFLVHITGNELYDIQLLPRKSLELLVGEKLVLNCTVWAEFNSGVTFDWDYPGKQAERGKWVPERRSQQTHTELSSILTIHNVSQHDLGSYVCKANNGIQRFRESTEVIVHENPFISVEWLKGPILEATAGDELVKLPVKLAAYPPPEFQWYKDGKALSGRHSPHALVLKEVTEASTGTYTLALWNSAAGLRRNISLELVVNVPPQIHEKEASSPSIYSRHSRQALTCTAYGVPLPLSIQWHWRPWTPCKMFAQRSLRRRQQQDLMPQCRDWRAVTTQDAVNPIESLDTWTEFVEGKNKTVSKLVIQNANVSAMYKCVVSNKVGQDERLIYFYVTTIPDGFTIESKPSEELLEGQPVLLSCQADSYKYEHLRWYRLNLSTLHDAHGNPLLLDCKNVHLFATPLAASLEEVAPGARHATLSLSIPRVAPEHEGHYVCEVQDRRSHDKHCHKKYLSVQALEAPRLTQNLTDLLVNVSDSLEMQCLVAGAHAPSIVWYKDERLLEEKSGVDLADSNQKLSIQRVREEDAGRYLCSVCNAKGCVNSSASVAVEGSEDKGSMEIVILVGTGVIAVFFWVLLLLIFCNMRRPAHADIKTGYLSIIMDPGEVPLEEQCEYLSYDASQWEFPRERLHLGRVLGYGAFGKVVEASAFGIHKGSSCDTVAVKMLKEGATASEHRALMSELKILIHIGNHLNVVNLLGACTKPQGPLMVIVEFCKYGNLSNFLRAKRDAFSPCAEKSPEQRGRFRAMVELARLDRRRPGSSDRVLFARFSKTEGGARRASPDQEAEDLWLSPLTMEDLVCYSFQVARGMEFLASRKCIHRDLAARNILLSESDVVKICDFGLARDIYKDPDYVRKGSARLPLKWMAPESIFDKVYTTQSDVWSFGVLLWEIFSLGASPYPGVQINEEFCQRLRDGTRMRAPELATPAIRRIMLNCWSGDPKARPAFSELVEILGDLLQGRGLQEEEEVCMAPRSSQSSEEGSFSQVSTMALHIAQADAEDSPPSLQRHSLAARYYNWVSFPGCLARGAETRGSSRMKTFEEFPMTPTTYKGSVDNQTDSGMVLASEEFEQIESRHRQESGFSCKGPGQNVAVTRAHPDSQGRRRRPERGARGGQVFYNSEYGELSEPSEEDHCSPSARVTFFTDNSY
Sequence of CAMK2A (human) (Q9UQM7 whole entry, looked up): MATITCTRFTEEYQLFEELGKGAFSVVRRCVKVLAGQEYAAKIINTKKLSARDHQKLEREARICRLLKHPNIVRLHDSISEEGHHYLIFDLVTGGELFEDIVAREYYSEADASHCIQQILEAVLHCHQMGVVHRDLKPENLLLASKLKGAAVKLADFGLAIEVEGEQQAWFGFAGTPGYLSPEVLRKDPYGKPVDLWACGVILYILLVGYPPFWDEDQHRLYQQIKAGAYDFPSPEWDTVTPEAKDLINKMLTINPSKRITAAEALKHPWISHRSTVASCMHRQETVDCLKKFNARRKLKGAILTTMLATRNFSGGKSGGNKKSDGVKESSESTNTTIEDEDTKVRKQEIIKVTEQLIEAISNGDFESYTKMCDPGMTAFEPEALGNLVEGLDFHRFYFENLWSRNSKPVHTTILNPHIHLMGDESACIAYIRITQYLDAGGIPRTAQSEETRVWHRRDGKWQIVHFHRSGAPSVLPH
Sequence of FGFR1 (human) (P11362 whole entry, looked up): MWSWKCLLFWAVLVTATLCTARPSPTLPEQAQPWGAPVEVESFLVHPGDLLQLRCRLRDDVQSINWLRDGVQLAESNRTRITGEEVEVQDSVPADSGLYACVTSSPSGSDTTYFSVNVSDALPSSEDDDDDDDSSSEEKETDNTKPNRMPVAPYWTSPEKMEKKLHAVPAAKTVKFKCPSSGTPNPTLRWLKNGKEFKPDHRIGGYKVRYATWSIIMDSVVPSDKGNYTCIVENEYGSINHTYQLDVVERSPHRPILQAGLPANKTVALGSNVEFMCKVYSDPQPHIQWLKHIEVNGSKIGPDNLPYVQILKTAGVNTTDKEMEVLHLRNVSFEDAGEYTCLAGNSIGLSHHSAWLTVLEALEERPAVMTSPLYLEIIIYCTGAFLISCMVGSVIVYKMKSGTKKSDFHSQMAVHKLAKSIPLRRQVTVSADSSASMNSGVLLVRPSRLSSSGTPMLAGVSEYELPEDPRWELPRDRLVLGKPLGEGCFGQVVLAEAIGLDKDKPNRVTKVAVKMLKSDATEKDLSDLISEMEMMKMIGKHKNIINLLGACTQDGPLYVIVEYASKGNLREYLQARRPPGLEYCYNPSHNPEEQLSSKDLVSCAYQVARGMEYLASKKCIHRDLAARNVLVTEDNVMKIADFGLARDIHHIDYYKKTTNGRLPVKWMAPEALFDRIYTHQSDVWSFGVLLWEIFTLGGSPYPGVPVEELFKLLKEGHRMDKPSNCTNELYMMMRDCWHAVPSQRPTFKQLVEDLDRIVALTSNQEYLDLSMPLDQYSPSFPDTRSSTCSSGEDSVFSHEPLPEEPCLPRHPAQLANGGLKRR
Sequence of CAMK1 (human) (Q14012 whole entry, looked up): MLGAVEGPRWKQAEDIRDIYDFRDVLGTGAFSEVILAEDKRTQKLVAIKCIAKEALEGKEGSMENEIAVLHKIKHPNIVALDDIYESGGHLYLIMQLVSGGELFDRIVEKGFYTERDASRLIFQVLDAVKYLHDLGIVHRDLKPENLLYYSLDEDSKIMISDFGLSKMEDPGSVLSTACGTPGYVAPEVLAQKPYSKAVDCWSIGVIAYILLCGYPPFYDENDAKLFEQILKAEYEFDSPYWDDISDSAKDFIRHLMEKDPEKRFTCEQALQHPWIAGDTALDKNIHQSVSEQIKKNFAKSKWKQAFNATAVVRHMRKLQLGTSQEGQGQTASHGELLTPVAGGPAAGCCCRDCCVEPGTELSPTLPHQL
Sequence of AURKC (human) (Q9UQB9 whole entry, looked up): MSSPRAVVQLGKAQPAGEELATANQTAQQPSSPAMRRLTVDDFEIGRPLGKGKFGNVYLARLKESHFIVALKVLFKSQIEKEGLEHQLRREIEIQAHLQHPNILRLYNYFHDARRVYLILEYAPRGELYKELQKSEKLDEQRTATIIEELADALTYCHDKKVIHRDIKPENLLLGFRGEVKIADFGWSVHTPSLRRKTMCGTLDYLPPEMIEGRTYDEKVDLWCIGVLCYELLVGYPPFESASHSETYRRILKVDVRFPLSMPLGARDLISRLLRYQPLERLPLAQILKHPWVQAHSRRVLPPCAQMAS

CCOc1cc2ncc(C#N)c(Nc3ccc(F)c(Cl)c3)c2cc1NC(=O)/C=C/CN(C)C
> 10 µM: all assays above

CS(=O)c1ccc(-c2nc(-c3ccc(F)cc3)c(-c3ccncc3)[nH]2)cc1 (stereo not drawn)
> 10 µM: [52]

Reference: the kinase profiling compilation of Christmann-Franck et al. (2016)
